Experiments:
Type in all cases: cell-based
[1] = molecular target: T1, Kv1.1/Kv1.1-V408A channels (Homo sapiens, UniProt Q09470, V408A); assay: TEVC of oocytes co-injected with 50/50 wild-type/V408A Kv1.1 cRNA; conditions: for effect on channel activity: compound 1 µM
T1 construct: expressed in transfected cells; host or cells: Xenopus laevis oocytes co-injected with 50/50 wild-type/mutant cRNA
Protocol: We next tested effects on channels generated by co-injection of 50/50 wild-type/mutant Kv1.1 cRNA. Strikingly, gallic acid (1 µM) was able to hyperpolarize (by −15.5 ± 0.5 mV; n = 4; P < 0.0001) the V0.5 act of Kv1.1/Kv1.1-E283K channels, restoring voltage dependence typical of wild-type Kv1.1 (Fig. 7a–c), also inducing a −14 ± 0.7 mV hyperpolarization (n = 4; P = 0.0005) in EM of oocytes expressing Kv1.1/Kv1.1-E283K (Fig. 7d). […] Because of this hint at activity improvement in L155P channels we also applied higher concentrations (10 and 100 µM) of gallic acid, which produced a more robust (−12.5 ± 0.6 mV and −14.1 ± 0.6 mV, respectively) hyperpolarization of Kv1.1/Kv1.1-L155P V0.5 act (Fig. 8b, c) and hyperpolarized EM by −14.0 ± 0.6 mV and −15.2 ± 0.7 mV, respectively (Fig. 8d).
Wild-type and mutant Kv1 cDNAs were generated (Genscript, Piscataway, NJ) in the pTLNx expression vector. As previously described, we generated cRNA transcripts encoding human Kv1.1 (wild-type and mutant) and Kv1.2, by in vitro transcription using the mMessage mMachine kit (Thermo Fisher Scientific), after vector linearization, from cDNA sub-cloned into plasmids (pTLNx) incorporating Xenopus laevis β-globin 5’ and 3’ UTRs flanking the coding region to enhance translation and cRNA stability. […]
(§1) We performed TEVC at room temperature using an OC-725C amplifier (Warner Instruments, Hamden, CT) and pClamp10 software (Molecular Devices, Sunnyvale, CA) 2 days after cRNA injection as described in the section above. […] We recorded currents in response to voltage pulses between −80 mV and +40 mV at 10 or 20 mV intervals from a holding potential of −80 mV, to yield current-voltage relationships and examine activation kinetics. To calculate the voltage dependence of activation (V0.5), tail currents were recorded at a voltage pulse of −50 mV immediately following prepulse voltages between −80 mV and +40 mV. We analyzed data using Clampfit (Molecular Devices) and Graphpad Prism software (GraphPad, San Diego, CA, USA), stating values as mean ± SEM. […]

wild-type human Kv1.2 = molecular target: T2, wild-type human Kv1.2 (Homo sapiens, UniProt P16389); assay: Two-electrode voltage clamp of oocytes expressing wild-type Kv1.2
T2 construct: expressed in transfected cells; host or cells: Xenopus laevis oocytes injected with cRNA (pTLNx vector)
T2 sequence (P16389 whole entry): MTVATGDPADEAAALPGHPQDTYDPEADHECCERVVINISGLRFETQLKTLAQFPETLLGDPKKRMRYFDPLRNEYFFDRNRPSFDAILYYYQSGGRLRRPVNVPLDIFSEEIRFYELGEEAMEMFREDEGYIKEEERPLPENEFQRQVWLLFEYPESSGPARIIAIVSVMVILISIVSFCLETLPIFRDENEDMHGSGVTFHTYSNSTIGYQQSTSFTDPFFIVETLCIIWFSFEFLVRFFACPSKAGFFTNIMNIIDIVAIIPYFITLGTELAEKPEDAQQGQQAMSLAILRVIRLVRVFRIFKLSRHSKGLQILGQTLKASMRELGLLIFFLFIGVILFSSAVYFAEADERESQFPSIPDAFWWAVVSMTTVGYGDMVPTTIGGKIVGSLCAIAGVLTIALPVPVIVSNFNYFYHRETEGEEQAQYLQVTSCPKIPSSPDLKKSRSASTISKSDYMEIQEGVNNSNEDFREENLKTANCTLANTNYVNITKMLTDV
Protocol: We therefore first tested for activity of extracts (diluted 1:50 in bath solution to equal 5 mg plant solid starting material per ml) of each of the three plants on wild-type human Kv1.1 and closely related Kv1.2 expressed in Xenopus laevis oocytes, using manual two-electrode voltage clamp (TEVC). Strikingly, all three extracts altered Kv1 channel activity. […] Pacific ninebark (roots or leaves) had similar effects on Kv1.1 but negligible effects on Kv1.2.
We purchased live Urtica dioica (Common Nettle) from Crimson Sage Nursery (Orleans, CA, USA), cultivated it in Irvine CA, collected the aerial portions (primarily leaves) and then froze them until the day of extraction. We purchased Physocarpus capitatus (Pacific ninebark) live whole plant from Ozark Wildflower Company (Jasper, AR, USA) and separated the roots and aerial parts before extraction of each. We homogenized plant samples using a bead mill with porcelain beads in batches in 50 ml tubes (Omni International, Kennesaw, GA, United States). We purchased certified organic tree bark powders from Mountain Rose Herbs (Eugene, OR, USA) and dry raw Sophora japonica (fine pellets) from Teriya (People’s Republic of China). We purchased bladderwrack kelp extract capsules from Terra Vita (Brampton, Ontario, Canada) and discarded the outer capsule before extraction. We resuspended all plant powders and homogenates in 80% methanol/20% water (100 ml per 5 g solid) and then incubated for 48 h at room temperature, occasionally inverting the bottles to resuspend the extracts. We next filtered the extracts through Whatman filter paper #1 (Whatman, Maidstone, UK), and then removed the methanol using evaporation in a fume hood for 24–48 h at room temperature. We next centrifuged extracts for 10 min at 15 °C, 4000 RCF to remove the remaining particulate matter, followed by storage at −20 °C. On the day of electrophysiological recording, we thawed the extracts and diluted them 1:50 in bath solution (see below), to equal 5 mg plant solid starting material per ml, immediately before use.
Wild-type and mutant Kv1 cDNAs were generated (Genscript, Piscataway, NJ) in the pTLNx expression vector. […]
as §1, with “mV.” for “mV. We analyzed data using Clampfit (Molecular Devices) and Graphpad Prism software (GraphPad, San Diego, CA, USA), stating values as mean ± SEM.”

Kv1.1-L155P channels = molecular target: T3, Kv1.1-L155P channels (Homo sapiens, UniProt Q09470, L155P); assay: TEVC of oocytes expressing 100% Kv1.1-L155P; conditions: compound 1 µM
T3 construct: expressed in transfected cells; host or cells: Xenopus laevis oocytes
T3 sequence (Q09470 whole entry L155P): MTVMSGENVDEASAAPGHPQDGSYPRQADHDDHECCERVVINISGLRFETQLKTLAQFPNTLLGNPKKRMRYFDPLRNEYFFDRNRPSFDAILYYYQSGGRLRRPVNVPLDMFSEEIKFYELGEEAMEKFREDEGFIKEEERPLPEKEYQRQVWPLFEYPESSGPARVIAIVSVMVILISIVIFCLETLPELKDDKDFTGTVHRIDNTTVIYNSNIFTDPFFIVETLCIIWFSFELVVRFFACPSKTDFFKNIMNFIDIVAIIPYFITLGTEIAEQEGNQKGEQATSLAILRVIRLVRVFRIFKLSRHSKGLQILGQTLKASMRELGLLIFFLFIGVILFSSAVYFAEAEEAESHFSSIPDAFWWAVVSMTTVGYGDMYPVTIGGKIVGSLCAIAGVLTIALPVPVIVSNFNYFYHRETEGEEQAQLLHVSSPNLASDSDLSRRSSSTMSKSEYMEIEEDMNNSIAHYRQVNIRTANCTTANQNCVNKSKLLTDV
Source text: As previously described[24], we generated cRNA transcripts encoding human Kv1.1 (wild-type and mutant) and Kv1.2, by in vitro transcription using the mMessage mMachine kit (Thermo Fisher Scientific), after vector linearization, from cDNA sub-cloned into plasmids (pTLNx) incorporating Xenopus laevis β-globin 5’ and 3’ UTRs flanking the coding region to enhance translation and cRNA stability. We injected defolliculated stage V and VI Xenopus laevis oocytes (Xenoocyte, Dexter, MI, US) with Kv1 cRNAs (1–5 ng). […]

T1 sequence (Q09470 whole entry, stated change not applied): as the sequence (Q09470 whole entry L155P) above, with P155L counted along it
T1 sequence (Q09470 whole entry V408A): as the sequence (Q09470 whole entry L155P) above, with P155L, V408A counted along it

EC50 (wild-type human Kv1.2; dose response, Fig. 4, read-out: EC50 for ΔV0.5activation) [nM]	Compound	effect on channel activity [1]	EM ([1]; in presence of 1 µM compound) [mV]	effect on Kv1.2 (wild-type human Kv1.2; compound dose response, Fig. 4a)	effect on channel activity (Kv1.1-L155P channels)
	O=C(O)c1cc(O)c(O)c(O)c1 [gallic acid]	negligible	-46.60 ± 0.60	relatively insensitive	ineffective at rescuing activity
253 ± 10	tannic acid	minimal			did not alter

Reference: article PMC10244465, “Native American ataxia medicines rescue ataxia-linked mutant potassium channel activity via binding to the voltage sensing domain” (Nature Communications, 2023)
